Data reported in ChEMBL document CHEMBL3872220, “Amphiphilic xanthones as a potent chemical entity of anti-mycobacterial agents with membrane-targeting properties” (Eur J Med Chem, 2016).
In brackets after ≈: the same amount, converted by molar mass.

Columns and labels:
[1] = tested on: Mycolicibacterium smegmatis; assay: Antimycobacterial activity against Mycobacterium smegmatis MC2 155 assessed as inhibition of respiratory ATP synthesis by measuring ATP level at 2 times MIC measured after 3 hrs by luciferase reporter gene assay (reference value: 158.3%); type: functional, str. MC2 155; set-up: scale not given: the % may be the effect or the level left
[2] = tested on: Mycolicibacterium smegmatis; assay: Antimycobacterial activity against Mycobacterium smegmatis MC2 155 after 24 hrs by broth dilution assay; type: functional; details: str. MC2 155, 24 h
[3] = tested on: Mycolicibacterium smegmatis; assay: Antimycobacterial activity against Mycobacterium smegmatis MC2 155 assessed as inhibition of respiratory ATP synthesis by measuring ATP level at 4 times MIC measured after 6 hrs by luciferase reporter gene assay (reference value: 212.7%); type: functional, str. MC2 155; set-up: scale not given: the % may be the effect or the level left
[4] = tested on: Mycolicibacterium smegmatis; assay: Antimycobacterial activity against Mycobacterium smegmatis MC2 155 assessed as inhibition of respiratory ATP synthesis by measuring ATP level at 4 times MIC measured after 6 hrs by luciferase reporter gene assay (reference value: 152%); type: functional, str. MC2 155; set-up: scale not given: the % may be the effect or the level left
[5] = tested on: Mycolicibacterium smegmatis; assay: Antimycobacterial activity against Mycobacterium smegmatis MC2 155 assessed as inhibition of respiratory ATP synthesis by measuring ATP level at 4 times MIC measured after 1 hr by luciferase reporter gene assay (reference value: 90.6%); type: functional, str. MC2 155; set-up: scale not given: the % may be the effect or the level left
[6] = Drug metabolism in rat liver microsomes at 1 uM preincubated for 5 mins followed by NADPH addition measured up to 30 mins by LC-MS/MS method; type: ADME; details: read-out: Drug metabolism
[7] = Selectivity index, ratio of CC50 for human corneal fibroblasts assessed as reduction in ATP level to MIC90 for Mycobacterium bovis BCG ATCC 35734
CYP3A4 = CYP3A4 (Homo sapiens, UniProt P08684); assay: Inhibition of CYP3A4 in human liver microsomes at 10 uM using midazolam as substrate preincubated for 5 min followed by NADPH addition measured after 10 mins by LC-MS/MS method relative to control; type: ADME; details: probe midazolam
CYP2D6 = CYP2D6 (Homo sapiens, UniProt P10635); assay: Inhibition of CYP2D6 in human liver microsomes at 10 uM using bufuralol as substrate preincubated for 5 min followed by NADPH addition measured after 10 mins by LC-MS/MS method relative to control; type: ADME; details: probe bufuralol
[8] = Selectivity index, ratio of CC50 for human corneal fibroblasts assessed as reduction in ATP level to MIC90 for Mycobacterium smegmatis MC2 155
[9] = Cytotoxicity against human corneal fibroblasts assessed as reduction in ATP level measured after 4 hrs by Celltiter-Glo luminescent assay; type: toxicity, Corneal fibroblast
[10] = Cytotoxicity against human corneal fibroblasts assessed as increase in LDH level measured after 4 hrs by Cytotox-one […] assay; type: toxicity, Corneal fibroblast
CYP2C19 = CYP2C19 (Homo sapiens, UniProt P33261); assay: Inhibition of CYP2C19 in human liver microsomes at 10 uM using omeprazole as substrate preincubated for 5 min followed by NADPH addition measured after 10 mins by LC-MS/MS method relative to control; type: ADME; details: probe omeprazole
[11] = Hemolytic activity against New Zealand white rabbit RBC assessed as hemoglobin release measured after 1 hr; type: ADME, cell-based, Oryctolagus cuniculus, Erythrocyte; details: red blood cells
[12] = Half life in rat liver microsomes at 1 uM preincubated for 5 mins followed by NADPH addition measured by LC-MS/MS method; type: ADME
[13] = tested on: Mycolicibacterium smegmatis; assay: Antimycobacterial activity against Mycobacterium smegmatis MC2 155 assessed as inhibition of respiratory ATP synthesis by measuring ATP level at 800 ug/ml measured after 3 hrs by luciferase reporter gene assay (reference value: 158.3%); type: functional, str. MC2 155; set-up: scale not given: the % may be the effect or the level left
[14] = tested on: Mycolicibacterium smegmatis; assay: Antimycobacterial activity against Mycobacterium smegmatis MC2 155 assessed as inhibition of respiratory ATP synthesis by measuring ATP level at 800 ug/ml measured after 9 hrs by luciferase […] assay (reference value: 212.7%); type: functional, str. MC2 155; set-up: scale not given: the % may be the effect or the level left
[15] = tested on: Mycolicibacterium smegmatis; assay: Antimycobacterial activity against Mycobacterium smegmatis MC2 155 assessed as inhibition of respiratory ATP synthesis by measuring ATP level at 800 ug/ml measured after 6 hrs by luciferase reporter gene assay (reference value: 152%); type: functional, str. MC2 155; set-up: scale not given: the % may be the effect or the level left
[16] = tested on: Mycolicibacterium smegmatis; assay: Antimycobacterial activity against Mycobacterium smegmatis MC2 155 assessed as inhibition of respiratory ATP synthesis by measuring ATP level at 800 ug/ml measured after 1 hr by luciferase reporter gene assay (reference value: 90.6%); type: functional, str. MC2 155; set-up: scale not given: the % may be the effect or the level left
Staphylococcus aureus [17] = assay: Antibacterial activity against methicillin-resistant Staphylococcus aureus isolate DM21455; type: functional
Staphylococcus aureus [18] = assay: Antibacterial activity against Staphylococcus aureus isolate DM4001; type: functional

Sequence of CYP2D6 (P10635 whole entry): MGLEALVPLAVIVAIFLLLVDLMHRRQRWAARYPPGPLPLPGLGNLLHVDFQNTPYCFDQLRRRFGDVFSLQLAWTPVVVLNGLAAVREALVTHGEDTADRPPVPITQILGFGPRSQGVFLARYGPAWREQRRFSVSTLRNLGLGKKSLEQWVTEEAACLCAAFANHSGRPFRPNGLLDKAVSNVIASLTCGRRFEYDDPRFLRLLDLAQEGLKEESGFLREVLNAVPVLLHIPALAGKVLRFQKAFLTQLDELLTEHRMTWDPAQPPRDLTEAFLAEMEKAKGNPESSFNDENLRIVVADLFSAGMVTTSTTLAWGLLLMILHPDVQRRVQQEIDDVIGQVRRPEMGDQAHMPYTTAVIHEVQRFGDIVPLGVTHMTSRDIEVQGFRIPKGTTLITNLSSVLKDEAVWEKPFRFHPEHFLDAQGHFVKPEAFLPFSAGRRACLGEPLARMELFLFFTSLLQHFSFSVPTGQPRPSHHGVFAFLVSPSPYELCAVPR
Sequence of CYP3A4 (P08684 whole entry): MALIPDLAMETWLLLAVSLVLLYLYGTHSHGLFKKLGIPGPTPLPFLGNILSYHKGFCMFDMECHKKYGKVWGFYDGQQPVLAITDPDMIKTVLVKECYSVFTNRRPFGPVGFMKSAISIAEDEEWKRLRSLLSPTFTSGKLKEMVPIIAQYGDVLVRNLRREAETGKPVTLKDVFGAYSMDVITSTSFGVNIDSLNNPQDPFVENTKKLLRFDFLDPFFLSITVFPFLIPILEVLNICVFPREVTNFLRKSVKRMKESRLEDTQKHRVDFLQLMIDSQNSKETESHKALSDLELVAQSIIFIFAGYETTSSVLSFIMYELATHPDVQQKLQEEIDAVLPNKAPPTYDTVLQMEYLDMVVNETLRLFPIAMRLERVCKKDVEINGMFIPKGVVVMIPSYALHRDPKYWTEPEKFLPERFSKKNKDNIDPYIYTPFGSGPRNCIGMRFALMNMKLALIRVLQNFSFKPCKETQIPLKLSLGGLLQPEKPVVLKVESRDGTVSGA
Sequence of CYP2C19 (P33261 whole entry): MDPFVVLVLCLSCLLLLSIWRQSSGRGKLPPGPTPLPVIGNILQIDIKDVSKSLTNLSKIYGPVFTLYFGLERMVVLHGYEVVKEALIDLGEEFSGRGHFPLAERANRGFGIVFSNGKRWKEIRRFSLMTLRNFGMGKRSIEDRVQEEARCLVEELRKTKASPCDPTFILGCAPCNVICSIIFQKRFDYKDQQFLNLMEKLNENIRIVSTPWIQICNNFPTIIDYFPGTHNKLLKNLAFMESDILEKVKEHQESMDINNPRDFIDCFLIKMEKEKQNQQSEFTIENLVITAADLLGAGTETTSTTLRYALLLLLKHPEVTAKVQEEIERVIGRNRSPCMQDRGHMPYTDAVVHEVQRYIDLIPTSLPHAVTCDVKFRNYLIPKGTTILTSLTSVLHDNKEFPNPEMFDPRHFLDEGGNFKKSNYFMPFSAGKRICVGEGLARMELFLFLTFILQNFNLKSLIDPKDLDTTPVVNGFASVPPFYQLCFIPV

CC[C@@H](CO)NCCN[C@@H](CC)CO [ETHAMBUTOL]
Activity [1]: 13.1%
MIC90 [2]: 1.25 µM (≈ 0.255 µg/mL)
Activity [3]: 79.7%
Activity [4]: 71.3%
Activity [5]: 113.5%

CCN(CC)CCCCCCCOc1cc2oc3cc(OCCCCCCCN(CC)CC)c(OC)c(CC=C(C)C)c3c(=O)c2c(O)c1CC=C(C)C
metabolised at 0.5 h, 1 µM [6]: 13.9%
Selectivity Index [7]: 15 - 40
inhibition at 10 min, 10 µM (CYP3A4): 3%
inhibition at 10 min, 10 µM (CYP2D6): 6%
Selectivity Index [8]: 15 - 40
CC50 at 4 h [9]: 95.1 µM
MIC90 [2]: 6.4 µM (≈ 4.79 µg/mL)
CC50 at 4 h [10]: > 150 µM
inhibition at 10 min, 10 µM (CYP2C19): 16%
HC50 at 1 h [11]: 86 µM
half-life at 1 µM [12]: > 30 min

COc1c(OCC(=O)NC(CCCNC(=N)N)C(N)=O)cc2oc3cc(OCC(=O)NC(CCCNC(=N)N)C(N)=O)c(CC=C(C)C)c(O)c3c(=O)c2c1CC=C(C)C (configuration not stated)
metabolised at 0.5 h, 1 µM [6]: 14.4%
inhibition at 10 min, 10 µM (CYP3A4): 42%
inhibition at 10 min, 10 µM (CYP2D6): 2%
CC50 at 4 h [9]: 60.1 µM
MIC90 [2]: > 30 µM
CC50 at 4 h [10]: 119 µM
inhibition at 10 min, 10 µM (CYP2C19): 3%
HC50 at 1 h [11]: 183 µM
half-life at 1 µM [12]: > 30 min

CCCN(CCC)CC(O)COc1cc2oc3cc(OCC(O)CN(CCC)CCC)c(OC)c(CC=C(C)C)c3c(=O)c2c(O)c1CC=C(C)C (configuration not stated)
MIC90 [2]: > 30 µM
HC50 at 1 h [11]: > 276 µM

CCN(CC)CCCCOc1ccc2c(=O)c3c(O)cc(OCCCCN(CC)CC)cc3oc2c1
MIC90 [2]: > 30 µM
HC50 at 1 h [11]: > 401 µM

CO[C@H]1/C=C/O[C@@]2(C)Oc3c(C)c(O)c4c(O)c(c(/C=N/N5CCN(C)CC5)c(O)c4c3C2=O)NC(=O)/C(C)=C\C=C\[C@H](C)[C@H](O)[C@@H](C)[C@@H](O)[C@@H](C)[C@H](OC(C)=O)[C@@H]1C [RIFAMPIN]
Activity [1]: 95.6%
MIC90 [2]: 2.5 µM (≈ 2.06 µg/mL)
Activity [4]: 66.5%
Activity [5]: 123.4%

CCN(CC)CC(O)COc1cc2oc3cc(OCC(O)CN(CC)CC)c(OC)c(CC=C(C)C)c3c(=O)c2c(O)c1CC=C(C)C (configuration not stated)
MIC90 [2]: 6.4 µM (≈ 4.28 µg/mL)
HC50 at 1 h [11]: 108 µM

O=C(CC(=O)C(F)(F)F)c1cccs1
Activity [13]: 25.8%
Activity [14]: 26.3%
Activity [15]: 17.4%
Activity [16]: 36.8%

CCCCN(CC)CCCCOc1cc2oc3cc(OCCCCN(CC)CCCC)c(OC)c(CC=C(C)C)c3c(=O)c2c(O)c1CC=C(C)C
MIC90 [2]: > 30 µM
HC50 at 1 h [11]: > 277 µM

COc1c(OCCCCN(C)C)cc2oc3cc(OCCCCN(C)C)c(CCC(C)C)c(O)c3c(=O)c2c1CCC(C)C
MIC90 [2]: 6.4 µM (≈ 3.92 µg/mL)

COC(=O)C(Cc1cnc[nH]1)NC(=O)COc1cc2oc3cc(OCC(=O)NC(Cc4cnc[nH]4)C(=O)OC)c(OC)c(CC=C(C)C)c3c(=O)c2c(O)c1CC=C(C)C (configuration not stated)
MIC90 [2]: > 30 µM
HC50 at 1 h [11]: > 241 µM

CCN(CC)CCOc1cc2oc3cc(OCCN(CC)CC)c(OC)c(CC=C(C)C)c3c(=O)c2c(O)c1CC=C(C)C
metabolised at 0.5 h, 1 µM [6]: 82.8%
inhibition at 10 min, 10 µM (CYP3A4): 20%
inhibition at 10 min, 10 µM (CYP2D6): 28%
CC50 at 4 h [9]: 44.1 µM
MIC90 [2]: 3.2 µM (≈ 1.95 µg/mL)
CC50 at 4 h [10]: 92.6 µM
inhibition at 10 min, 10 µM (CYP2C19): 16%
HC50 at 1 h [11]: > 328 µM
half-life at 1 µM [12]: 12 min

COc1c(OCC(O)CNCCNCCNCCN)cc2oc3cc(OCC(O)CNCCNCCNCCN)c(CC=C(C)C)c(O)c3c(=O)c2c1CC=C(C)C (configuration not stated)
MIC (Staphylococcus aureus [17]): 15 µM (≈ 12.2 µg/mL)
MIC90 [2]: > 30 µM
MIC (Staphylococcus aureus [18]): 15 µM (≈ 12.2 µg/mL)
HC50 at 1 h [11]: 155 µM

CN[C@@H]1[C@H](O[C@H]2[C@H](O[C@H]3[C@H](O)[C@@H](O)[C@H](N=C(N)N)[C@@H](O)[C@@H]3N=C(N)N)O[C@@H](C)[C@]2(O)C=O)O[C@@H](CO)[C@H](O)[C@H]1O [STREPTOMYCIN]
Activity [1]: 75.7%
MIC90 [2]: 0.625 µM (≈ 0.363 µg/mL)
Activity [3]: 75.7%
Activity [4]: 59.9%
Activity [5]: 114.4%

COC(=O)C(CCCNC(=N)N)NC(=O)COc1cc2oc3cc(OCC(=O)NC(CCCNC(=N)N)C(=O)OC)c(OC)c(CC=C(C)C)c3c(=O)c2c(O)c1CC=C(C)C (configuration not stated)
metabolised at 0.5 h, 1 µM [6]: 12.6%
inhibition at 10 min, 10 µM (CYP3A4): 36%
MIC (Staphylococcus aureus [17]): 2.5 µM (≈ 2.17 µg/mL)
inhibition at 10 min, 10 µM (CYP2D6): 11%
CC50 at 4 h [9]: 13.7 µM
MIC90 [2]: > 30 µM
MIC (Staphylococcus aureus [18]): 3.5 µM (≈ 3.03 µg/mL)
CC50 at 4 h [10]: 13.4 µM
inhibition at 10 min, 10 µM (CYP2C19): 1%
HC50 at 1 h [11]: 309 µM
half-life at 1 µM [12]: > 30 min

CCN(CC)CCCCOc1cc2oc3cc(OCCCCN(CC)CC)c(OC)c(CCC(C)C)c3c(=O)c2c(O)c1CCC(C)C
MIC90 [2]: 6.4 µM (≈ 4.28 µg/mL)

COc1c(OCC(O)CNC(CO)(CO)CO)cc2oc3cc(OCC(O)CNC(CO)(CO)CO)c(CC=C(C)C)c(O)c3c(=O)c2c1CC=C(C)C (configuration not stated)
MIC90 [2]: 26 µM (≈ 19.9 µg/mL)
HC50 at 1 h [11]: 33.2 µM

COc1c(OCCCCN2CCOCC2)cc2oc3cc(OCCCCN4CCOCC4)c(CC=C(C)C)c(OCCCCN4CCOCC4)c3c(=O)c2c1CC=C(C)C
MIC90 [2]: > 30 µM
HC50 at 1 h [11]: > 240 µM

C(=NC1CCCCC1)=NC1CCCCC1 [DICYCLOHEXYLCARBODIIMIDE]
Activity [13]: 6.7%
Activity [14]: 13.3%
Activity [15]: 11.1%
Activity [16]: 7%

CCN(CC)CCCOc1cc2oc3cc(OCCCN(CC)CC)c(OC)c(CC=C(C)C)c3c(=O)c2c(O)c1CC=C(C)C
MIC90 [2]: 3.2 µM (≈ 2.04 µg/mL)

COc1c(OCC(O)CNCCN)cc2oc3cc(OCC(O)CNCCN)c(CC=C(C)C)c(O)c3c(=O)c2c1CC=C(C)C (configuration not stated)
MIC (Staphylococcus aureus [17]): 5 µM (≈ 3.21 µg/mL)
MIC90 [2]: > 30 µM
MIC (Staphylococcus aureus [18]): 10 µM (≈ 6.43 µg/mL)
HC50 at 1 h [11]: 125 µM

COc1c(OCCCCN2CCSCC2)cc2oc3cc(OCCCCN4CCSCC4)c(CC=C(C)C)c(O)c3c(=O)c2c1CC=C(C)C
MIC90 [2]: > 30 µM
HC50 at 1 h [11]: > 276 µM

CCN(CC)CCCCOc1cc2oc3cc(OCCCCN(CC)CC)c(OC)c(CC=C(C)C)c3c(=O)c2c(OCCCCN(CC)CC)c1CC=C(C)C
metabolised at 0.5 h, 1 µM [6]: 11.6%
inhibition at 10 min, 10 µM (CYP3A4): 40%
inhibition at 10 min, 10 µM (CYP2D6): 30%
CC50 at 4 h [9]: 43.7 µM
MIC90 [2]: > 30 µM
CC50 at 4 h [10]: > 150 µM
inhibition at 10 min, 10 µM (CYP2C19): 10%
HC50 at 1 h [11]: > 252 µM
half-life at 1 µM [12]: > 30 min

COc1c(OCC(O)CNCCNC(=N)N)cc2oc3cc(OCC(O)CNCCNC(=N)N)c(CC=C(C)C)c(O)c3c(=O)c2c1CC=C(C)C (configuration not stated)
MIC (Staphylococcus aureus [17]): 5 µM (≈ 3.63 µg/mL)
MIC90 [2]: > 30 µM
MIC (Staphylococcus aureus [18]): 5 µM (≈ 3.63 µg/mL)
HC50 at 1 h [11]: 141 µM
